The record followed here is PubChem BioAssay (NCI).

Test systems include SN12C renal; MALME-3M melanoma; OVCAR-3 ovarian; K-562 leukemia; UACC-62 melanoma; SW-620 colon; SK-MEL-28 melanoma; MOLT-4 leukemia; HL-60(TB) leukemia; OVCAR-4 ovarian.
Holding throughout (experiment): NCI tumour cell line growth inhibition, 48 h

Several values for one entry are separate records, joined by “and”; a condition that tells them apart may be missing. Identical values can stand only once.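 Tested at 5 concentrations; 48 h exposure; 96-well plates; endpoints linearly interpolated, else capped at highest concentration. The concentration for 50% growth inhibition is given as GI50. TGI is the concentration that stops growth completely.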

`CS(=O)(=O)CCNCc1ccc(-c2ccc3ncnc(Nc4ccc(OCc5cccc(F)c5)c(Cl)c4)c3c2)o1`: the GI50 in the assay with SN12C renal is > 10 µM and 9.1 µM; in the assay with MALME-3M melanoma, > 10 µM and 1.66 µM and 2.67 µM; in the assay on OVCAR-3 ovarian it was > 10 µM and 3.54 µM and 8.01 µM; in the assay on K-562 leukemia it was > 10 µM and 1.99 µM and 2.61 µM; in the assay with UACC-62 melanoma, > 10 µM and 6.68 µM and 9.22 µM; with SW-620 colon, > 10 µM and 1.94 µM and 3.82 µM. Moreover, the GI50 was > 10 µM and 4.37 µM and 3.35 µM in the assay with SK-MEL-28 melanoma; 4.54 µM and 2.93 µM and 2.94 µM with MOLT-4 leukemia; > 10 µM and 7.8 µM and 6.78 µM with OVCAR-4 ovarian. For the same compound, the TGI with SN12C renal is > 10 µM and > 100 µM and 36.2 µM; in the assay with MALME-3M melanoma, > 10 µM and 3.23 µM and 6.56 µM; in the assay on OVCAR-3 ovarian, > 10 µM and 52.6 µM and 24.2 µM; with K-562 leukemia, > 10 µM and 4.67 µM and 18.3 µM; with UACC-62 melanoma, > 10 µM and > 100 µM and 23.1 µM; in the assay on SW-620 colon it was > 10 µM and 3.6 µM and 9.46 µM. For the same compound, the TGI with SK-MEL-28 melanoma was > 10 µM and 16.5 µM and 18.9 µM; with MOLT-4 leukemia, > 10 µM and > 100 µM and 21.9 µM; with HL-60(TB) leukemia it was > 10 µM and > 100 µM and 23.6 µM; in the assay with OVCAR-4 ovarian, > 10 µM and > 86.9 µM and 23.3 µM.
With `COc1cc2c(NCCCCCO)ncnc2c(OC)c1OC`, the TGI with SN12C renal, in the assay with MALME-3M melanoma, with OVCAR-3 ovarian, in the assay with K-562 leukemia, in the assay with UACC-62 melanoma and with SW-620 colon was greater than 100 µM in each case. In addition, the TGI in the assay on SK-MEL-28 melanoma, in the assay with MOLT-4 leukemia, in the assay with HL-60(TB) leukemia and with OVCAR-4 ovarian was greater than 100 µM in each case.
Regarding `COc1cc(OC)cc(Oc2cnc3cc(N)cc(N)c3n2)c1`, the GI50 is 15.8 µM in the assay with SN12C renal; 10.7 µM in the assay with MALME-3M melanoma; 1.83 µM in the assay on OVCAR-3 ovarian; 20.2 µM with K-562 leukemia; 14.4 µM in the assay on UACC-62 melanoma; 18.6 µM in the assay with SW-620 colon. Moreover, the GI50 in the assay with SK-MEL-28 melanoma was 14.2 µM; in the assay on MOLT-4 leukemia, 5.37 µM; with HL-60(TB) leukemia, 5.68 µM; in the assay on OVCAR-4 ovarian, 9.07 µM. Besides, the TGI amounted to 29.3 µM with SN12C renal; 22.5 µM in the assay on MALME-3M melanoma; 10.5 µM with OVCAR-3 ovarian; 46.8 µM in the assay with K-562 leukemia; 27.8 µM in the assay on UACC-62 melanoma; 43.7 µM in the assay on SW-620 colon. Also, the TGI in the assay on SK-MEL-28 melanoma was found to be 28.4 µM; with MOLT-4 leukemia, 20.7 µM; in the assay on HL-60(TB) leukemia it was 28 µM; in the assay with OVCAR-4 ovarian, 21.8 µM.
Consider `O=C(Cc1ccccc1[N+](=O)[O-])C(CO)c1ccccc1[N+](=O)[O-]` (centres undefined), for which the TGI in the assay on SN12C renal, in the assay on MALME-3M melanoma, in the assay with OVCAR-3 ovarian, in the assay with K-562 leukemia, in the assay with UACC-62 melanoma and in the assay with SW-620 colon was greater than 100 µM in each case. For the same compound, the TGI with SK-MEL-28 melanoma, in the assay with MOLT-4 leukemia, in the assay with HL-60(TB) leukemia and with OVCAR-4 ovarian was greater than 100 µM in each case.
For the compound `CC(=O)OCC12CN(C#N)C3C4COC(CC41)C1(C(=O)N(C)c4ccccc41)C32` (centres undefined), the TGI in the assay on SN12C renal is 73.1 µM; in the assay with MALME-3M melanoma it was 54.1 µM; in the assay with OVCAR-3 ovarian it was 14.7 µM; in the assay on K-562 leukemia, greater than 100 µM; with UACC-62 melanoma, 52.2 µM; in the assay on SW-620 colon, 59.6 µM. Also, the TGI was 62.9 µM in the assay on SK-MEL-28 melanoma, greater than 100 µM in the assay with MOLT-4 leukemia, 30.7 µM with HL-60(TB) leukemia and 49.6 µM with OVCAR-4 ovarian.
Turning to `COc1ccc(-c2cc(/C=C3\C(=O)Nc4cc(Cl)ccc43)[nH]n2)cc1`, the GI50 in the assay with SN12C renal was 6.69 µM; in the assay on MALME-3M melanoma it was 6.23 µM; in the assay with OVCAR-3 ovarian it was 2.59 µM; with K-562 leukemia it was 1.56 µM; in the assay with UACC-62 melanoma, 2.46 µM; in the assay on SW-620 colon it was 2.57 µM. For the same compound, the GI50 is 7.45 µM with SK-MEL-28 melanoma, 4.17 µM with MOLT-4 leukemia, 2.26 µM with HL-60(TB) leukemia and 6.79 µM in the assay with OVCAR-4 ovarian. In addition, the TGI was greater than 100 µM in the assay on SN12C renal; greater than 100 µM in the assay on MALME-3M melanoma; 8.48 µM in the assay on OVCAR-3 ovarian; 32.3 µM in the assay with K-562 leukemia; greater than 100 µM in the assay on UACC-62 melanoma; greater than 100 µM in the assay on SW-620 colon. Further, the TGI in the assay with SK-MEL-28 melanoma was greater than 100 µM; with MOLT-4 leukemia, greater than 100 µM; in the assay with HL-60(TB) leukemia, 6.33 µM; with OVCAR-4 ovarian it was 94.1 µM.
On to `O=[N+]([O-])c1ccc(/C=C/c2nc3ccc(Cl)cc3[nH]2)cc1`, for which the GI50 in the assay with SN12C renal is 24 µM; in the assay with MALME-3M melanoma, greater than 100 µM; in the assay on OVCAR-3 ovarian, 22.4 µM; in the assay with K-562 leukemia, 5.99 µM; with UACC-62 melanoma it was greater than 100 µM; with SW-620 colon, 28.7 µM. The GI50 in the assay with SK-MEL-28 melanoma is greater than 100 µM; with MOLT-4 leukemia it was 59.7 µM; with HL-60(TB) leukemia, greater than 100 µM; with OVCAR-4 ovarian it was 74 µM. In addition, the TGI is 91 µM in the assay with SN12C renal; greater than 100 µM in the assay on MALME-3M melanoma; 65.1 µM in the assay on OVCAR-3 ovarian; greater than 100 µM in the assay on K-562 leukemia; greater than 100 µM with UACC-62 melanoma; greater than 100 µM in the assay with SW-620 colon. Also, the TGI in the assay on SK-MEL-28 melanoma, in the assay on MOLT-4 leukemia, in the assay on HL-60(TB) leukemia and with OVCAR-4 ovarian was greater than 100 µM throughout.
As to `NC(=O)c1cccc2c(N[C@H](CN3CCC3)c3ccc(Cl)c(C(F)(F)F)c3)ncnc12`, the GI50 in the assay on SN12C renal was 2.11 µM; in the assay on MALME-3M melanoma, 0.399 µM; with OVCAR-3 ovarian it was 3.3 µM; with K-562 leukemia it was 2.53 µM; in the assay with UACC-62 melanoma, 1.13 µM; in the assay on SW-620 colon, 3.43 µM. Moreover, the GI50 with SK-MEL-28 melanoma was 1.18 µM; in the assay on MOLT-4 leukemia it was 0.257 µM; with HL-60(TB) leukemia, 2.13 µM; with OVCAR-4 ovarian it was 3.26 µM. Further, the TGI with SN12C renal was determined as 13.9 µM; with MALME-3M melanoma it was 1.85 µM; in the assay with OVCAR-3 ovarian, 16.2 µM; in the assay on K-562 leukemia it was 10.8 µM; in the assay on UACC-62 melanoma, 8.62 µM; with SW-620 colon it was 16.3 µM. The TGI was found to be 4.13 µM with SK-MEL-28 melanoma, 3.46 µM in the assay on MOLT-4 leukemia, 5.64 µM in the assay on HL-60(TB) leukemia and 16.6 µM in the assay on OVCAR-4 ovarian.
Take `N#CC(C#N)=CNCCN1CCN(C=C(C#N)C#N)CC1`: the TGI in the assay on SN12C renal, with MALME-3M melanoma, with OVCAR-3 ovarian, with K-562 leukemia, in the assay with UACC-62 melanoma and in the assay on SW-620 colon was greater than 100 µM in each case. The TGI in the assay on SK-MEL-28 melanoma, in the assay with MOLT-4 leukemia, with HL-60(TB) leukemia and in the assay with OVCAR-4 ovarian was greater than 100 µM in each case.
